From patent US20100196321A1, “COMPOUNDS” (GLAXOSMITHKLINE LLC, priority 2009, published 2010) come the findings set out here.

In general, IC50 refers to the concentration that gives 50% inhibition. A word on the EC50: it is the concentration that produces a half-maximal response.

The test system of assay [1] is sub-genomic HCV NS3-NS5B replicon of genotype 1a in Huh-7 cells. The experiment in a line: Replicon Luciferase Cell Based Assay, genotype 1a. Details: species or system HCV genotype 1a. The following applies: Hepatitis C virus, Huh-7, 48 hours. Summed up:
(§1)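 5,000 luciferase-replicon cells per well in DMEM with 5% FCS were exposed to 1:3 compound dilutions for 48 h at 37 °C. Firefly luciferase (Steady-Glo) was read, with CellTiter-Glo on duplicate plates for cytotoxicity; background-subtracted signal as % of compound-free control gave IC50.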
On the technique in general: Replicon systems follow genome replication, usually without infectious particles.

Assay [2] concerns HCV mutant replicon A156S. Nature of the assay: HCV PI Transient Replicon Assay, A156S. To be noted: Hepatitis C virus, 72 h, read-out: A156S EC50 values (nM). Format: cell-based. The source says: (§2) A model system for HCV RNA replication is a cell based assay using subgenomic or genomic HCV replicons containing HCV genes and possibly a selectable and/or screenable marker. […] The HCV PI transient replicons assay was derived from two publications ([…]; J Virol 75, 12047, 2001). In this assay, the target cells were “ET Cured cells”, a cell line generated by treating ET replicons cells (RebliKon) with Interferon a for several passages until the HCV genome was cleared. Other modifications to the published protocol included 1) cells were transfected in PBS and 2) were treated for 72 hours with compounds. Data from dose responses was analyzed using BioAssay. EC50 values were generated by plotting percent inhibition against compound concentration. The various HCV mutant replicons were generated by standard molecular biology techniques and confirmed by sequencing.

For assay [3], the system named is HCV mutant replicon A156T. The experiment in a line: HCV PI Transient Replicon Assay, A156T. In kind it is cell-based. The following applies: Hepatitis C virus, 72 h, read-out: A156T EC50 values (nM).
From the text: as §2

Assay [4] addresses HCV Genotype 1a NS3-4A Protease Domain (Hepatitis C virus genotype 1a, UniProt P27958, T1100M/T1173A). The experiment in a line: Hepatitis C NS3 Protease FRET Assay (RET-S1). In kind it is biochemical. On the procedure: Hepatitis C NS3 Protease FRET Assay (RET-S1) Using the HCV Genotype 1a NS3-4A Protease Domain
Compounds were tested as inhibitors of HCV NS3-4A protease domain in 10 μl reactions which contained 50 mM HEPES pH 7.5, 20% sucrose, 0.05% NP40, 5 mM DTT, 1 μM 4A peptide ([…] that served as a cofactor and activated the enzyme in the assay) (prepared by standard synthetic methods), 5 μM RET S1 substrate (Ac-DED(EDANS)EEAbu ψ[COO] ASK(DABCYL)) and 1 nM NS3 protease domain. The RET S1 substrate (Ac-Asp-Glu-Asp(EDANS)-Glu-Glu-Abu-ψ-[COO]-Ala-Ser-Lys(DABCYL)-NH2) was purchased from Anaspec, Inc. (Taliani et. al, 1996, Anal Biochem). “ψ-[COO]” refers to the location of the ester bond within the molecule
Cleavage of the substrate, which is based on the natural NS4A/NS4B junction (DEMEECASHL), was monitored by measuring the increase in fluorescence with 355 nm excitation/495 nm emission in a Molecular Devices SpectraMax Gemini plate reader. Compounds were dissolved in DMSO and tested at 10 μM in duplicate or in dose response curves with usually 10 μM top concentration and 3-fold dilutions. The maximum level of DMSO was 5%. The standard compound in the assay was the compound BILN-2061 (Lamarre at al., (2003) Nature, 426, 186-189).

Assay [5] concerns HCV mutant replicon R155K. Nature of the assay: HCV PI Transient Replicon Assay, R155K. Format: cell-based. To be noted: Hepatitis C virus, 72 h, read-out: R155K EC50 values (nM).
From the text: as §2

Assay [6] deals with HCV mutant replicon D168A. Nature of the assay: HCV PI Transient Replicon Assay, D168A. The following applies: Hepatitis C virus, 72 h, read-out: D168A EC50 values (nM). Format: cell-based.
From the text: as §2

For assay [7], the system named is HCV mutant replicon D168V. Nature of the assay: HCV PI Transient Replicon Assay, D168V. To be noted: Hepatitis C virus, 72 h, read-out: D168V EC50 values (nM). Format: cell-based.
From the text: as §2

The test system of assay [8] is HCV protease-resistant mutants. Nature of the assay: HCV PI Transient Replicon Assay, profile over resistant mutants. The following applies: e.g. A1566S, A156T, R155K, others. In kind it is cell-based.
From the text: as §2
Compounds of the invention are thought to be active against HCV protease-resistant mutants. […] EC50 values (nM) are shown below in Table 3.

Assay [9] concerns sub-genomic HCV NS3-NS5B replicon of genotype 1b (ET subline) in Huh-7 cells. Nature of the assay: Replicon Luciferase Cell Based Assay, genotype 1b. Also on record: species or system HCV genotype 1b. The following applies: Hepatitis C virus, Huh-7, 48 h, read-out: Genotype 1b (IC50 μM). Summed up: as §1
The test system of assay [10] is HCV replicon wt. The experiment in a line: HCV PI Transient Replicon Assay, wt. The following applies: Hepatitis C virus; ET Cured cells, 72 hours. In kind it is cell-based.
From the text: as §2

Assay [11] concerns HCV mutant replicon A156V. The experiment in a line: HCV PI Transient Replicon Assay, A156V. Format: cell-based. To be noted: Hepatitis C virus, 72 h, read-out: A156V EC50 values (nM).
From the text: as §2

Regarding `COc1ccc2c(O[C@@H]3C[C@H]4C(=O)N[C@]5(C(=O)NS(=O)(=O)C6CC6)C[C@H]5/C=C\CCCCC[C@H](NC(=O)N5CCCCC5)C(=O)N4C3)cc(-c3nc(C(C)C)cs3)nc2c1C` [Example 16, (2R,6S,13aS,14aR,16aS)-N-(cyclopropylsulfonyl)-2-{[8-methyl-2-[4-(1-methylethyl)-1,3-thiazol-2-yl]-7-(methyloxy)-4-quinolinyl]oxy}-5,16-dioxo-6-[(1-piperidinylcarbonyl)amino]-1,2,3,6,7,8,9,10,11,13a,14,15,16,16a-tetradecahydrocyclopropa[e]pyrrolo[1,2-a][1,4]diazacyclopentadecine-14a(5H)-carboxamide], the results for the half-inhibitory concentration (IC50) in assay [1], in [4] and in [9] were less than 0.01 µM, 5 nM and less than 0.01 µM, respectively. The EC50 amounted to 0.07 nM in [2]; 1.95 nM in assay [3]; 6.93 nM in assay [5]; 24.8 nM in assay [6]; 80.6 nM in [7]; 0.04 nM in assay [10]. Moreover, the EC50 in [11] is 7.17 nM. Moreover, the “profile against resistant mutants compared with other HCV PI inhibitors ITMN-191 and TMC-435350” value in [8] is on record as “improved profile”.
